Source: patent US8952024B2, “Herbicidal pyrimidone derivatives” (E I du Pont de Nemours and Company, priority 2009, dated 2015)

Tests used:
Type in all cases: in vivo
[1] = test system: barnyardgrass (Echinochloa crus-galli); test: Test B flooded paddy test; details: for Plant response rating, Flood, Barnyardgrass: 250 g ai/ha, flooded paddy test, visual rating on 0 to 100 scale (0 no effect, 100 complete control) after 13 to 15 days; for Plant response rating, Barnyardgrass: Flood (flooded paddy test), 13 to 15 days
Outline: (§1)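 Seedlings reaching 2 leaves are flooded 3 cm deep; test material is delivered to that water, which stays at the same depth. Plants remain in a greenhouse 13–15 days and are then scored by eye versus controls from 0 to 100.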

[2] = test system: ducksalad (Heteranthera limosa); test: Test B flooded paddy test; details: for Plant response rating, Flood, Ducksalad: 250 g ai/ha, flooded paddy test, visual rating on 0 to 100 scale (0 no effect, 100 complete control) after 13 to 15 days; for Plant response rating, Ducksalad: Flood (flooded paddy test), 13 to 15 days
Outline: as §1

rice (Oryza sativa) = test: Test B flooded paddy test; details: for Plant response rating, Flood, Rice: 250 g ai/ha, flooded paddy test, visual rating on 0 to 100 scale (0 no effect, 100 complete control) after 13 to 15 days; for Plant response rating, Rice: Flood (flooded paddy test), 13 to 15 days
Outline: as §1

[3] = test system: umbrella sedge (Cyperus difformis); test: Test B flooded paddy test; details: for Plant response rating, Flood, Sedge, Umbrella: 250 g ai/ha, flooded paddy test, visual rating on 0 to 100 scale (0 no effect, 100 complete control) after 13 to 15 days; for Plant response rating, Sedge, Umbrella: Flood (flooded paddy test), 13 to 15 days
Outline: as §1

[4] = test system: large crabgrass (Digitaria sanguinalis); test: Test A pre-/postemergence plant response
Outline: (§2)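 Seeds planted in loam soil/sand blend; test chemicals in non-phytotoxic solvent mixture with surfactant applied as directed soil spray preemergence and, concurrently, postemergence to plants 2–10 cm tall at one- to two-leaf stage. Greenhouse ~10 days; visual injury vs untreated controls, 0 (no effect) to 100 (complete control).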

[5] = test system: barnyardgrass (Echinochloa crus-galli); test: Test A pre-/postemergence plant response
Outline: as §2

[6] = test system: morningglory (Ipomoea spp.); test: Test A pre-/postemergence plant response
Outline: as §2

corn (Zea mays) = test: Test A pre-/postemergence plant response
Outline: as §2

[7] = test system: velvetleaf (Abutilon theophrasti); test: Test A pre-/postemergence plant response
Outline: as §2

[8] = test system: pigweed (Amaranthus retroflexus); test: Test A pre-/postemergence plant response
Outline: as §2

[9] = test system: giant foxtail (Setaria faberii); test: Test A pre-/postemergence plant response
Outline: as §2

[10] = test system: wheat (Triticum aestivum); test: Test A pre-/postemergence plant response
Outline: as §2

[11] = 62 g ai/ha, scale of 0 to 100 where 0 is no effect and 100 is complete control
[12] = Postemergence, 125 g ai/ha, 0 to 100 scale where 0 is no effect and 100 is complete control
[13] = Postemergence, 500 g ai/ha, 0 to 100 scale, 0 = no effect, 100 = complete control, approx. ten days
[14] = Preemergence, 125 g ai/ha, 0 to 100 scale, 0 = no effect, 100 = complete control
[15] = Preemergence, 500 g ai/ha, visual injury, 0 to 100 scale (0 no effect, 100 complete control), approx. ten days
[16] = 125 g ai/ha, scale 0 to 100, 0 is no effect, 100 is complete control
[17] = Flood, 31 g ai/ha, scale 0 to 100 (0 no effect, 100 complete control)
[18] = Postemergence, 500 g ai/ha, visual injury, 0 to 100 scale (0 no effect, 100 complete control), approx. ten days
[19] = Preemergence, 500 g ai/ha, 0 to 100 scale, 0 = no effect, 100 = complete control

**Q.** With `CCCn1c(-c2ccc(OC)cc2)ncc(C(=O)C2=C(O)CCCC2=O)c1=O` [Compound 112] as the compound, how does the “Plant response rating, Flood, Barnyardgrass” value [1] read?
**A.** 40

**Q.** And the “Plant response rating, Barnyardgrass” value [1, 11]?
**A.** 35

**Q.** What about the “Plant response rating, Flood, Ducksalad” value [2] of the same compound?
**A.** 95

**Q.** And the “Plant response rating, Ducksalad” value [2, 11]?
**A.** 85

**Q.** And the “Plant response rating, Flood, Rice” value (rice (Oryza sativa))?
**A.** 15

**Q.** What about the “Plant response rating, Rice” value (rice (Oryza sativa); [11]) of the same compound?
**A.** 0

**Q.** What about the “Plant response rating, Flood, Sedge, Umbrella” value [3] of the same compound?
**A.** 90

**Q.** And the “Plant response rating, Sedge, Umbrella” value [3, 11]?
**A.** 85

**Q.** What about the “Plant response rating, Crabgrass, Large” value [4, 12] of the same compound?
**A.** 80

**Q.** What about the “Plant response rating, Crabgrass, Large” value [4, 13] of the same compound?
**A.** 90

**Q.** What about the “Plant response rating, Crabgrass, Large” value [4, 14] of the same compound?
**A.** 60

**Q.** And the “Plant response rating, Crabgrass, Large” value [4, 15]?
**A.** 100

**Q.** What about the “Plant response rating, Barnyardgrass” value [5, 12] of the same compound?
**A.** 60

**Q.** And the “Plant response rating, Barnyardgrass” value [5, 13]?
**A.** 90

**Q.** What about the “Plant response rating, Barnyardgrass” value [5, 14] of the same compound?
**A.** 0

**Q.** What about the “Plant response rating, Barnyardgrass” value [5, 15] of the same compound?
**A.** 80

**Q.** What about the “Plant response rating, Morningglory” value [6, 12] of the same compound?
**A.** 90

**Q.** What about the “Plant response rating, Morningglory” value [6, 13] of the same compound?
**A.** 100

**Q.** What about the “Plant response rating, Morningglory” value [6, 14] of the same compound?
**A.** 0

**Q.** And the “Plant response rating, Morningglory” value [6, 15]?
**A.** 80

**Q.** What about the “Plant response rating, Corn” value (corn (Zea mays); [12]) of the same compound?
**A.** 0

**Q.** And the “Plant response rating, Corn” value (corn (Zea mays); [13])?
**A.** 20

**Q.** And the “Plant response rating, Corn” value (corn (Zea mays); [14])?
**A.** 0

**Q.** What about the “Plant response rating, Corn” value (corn (Zea mays); [15]) of the same compound?
**A.** 0

**Q.** What about the “Plant response rating, Velvetleaf” value [7, 12] of the same compound?
**A.** 100

**Q.** And the “Plant response rating, Velvetleaf” value [7, 13]?
**A.** 100

**Q.** And the “Plant response rating, Velvetleaf” value [7, 14]?
**A.** 40

**Q.** What about the “Plant response rating, Velvetleaf” value [7, 15] of the same compound?
**A.** 70

**Q.** And the “Plant response rating, Pigweed” value [8, 12]?
**A.** 90

**Q.** And the “Plant response rating, Pigweed” value [8, 13]?
**A.** 100

**Q.** And the “Plant response rating, Pigweed” value [8, 14]?
**A.** 20

**Q.** And the “Plant response rating, Pigweed” value [8, 15]?
**A.** 100

**Q.** And the “Plant response rating, Foxtail, Giant” value [9, 12]?
**A.** 70

**Q.** What about the “Plant response rating, Foxtail, Giant” value [9, 13] of the same compound?
**A.** 80

**Q.** What about the “Plant response rating, Foxtail, Giant” value [9, 14] of the same compound?
**A.** 20

**Q.** And the “Plant response rating, Foxtail, Giant” value [9, 15]?
**A.** 60

**Q.** And the “Plant response rating, Wheat” value [10, 12]?
**A.** 0

**Q.** And the “Plant response rating, Wheat” value [10, 13]?
**A.** 10

**Q.** What about the “Plant response rating, Wheat” value [10, 14] of the same compound?
**A.** 0

**Q.** What about the “Plant response rating, Wheat” value [10, 15] of the same compound?
**A.** 0

**Q.** How did the “Plant response rating, Flood, Barnyardgrass” value [1] turn out when `COc1ccc(-n2c(-c3cccc(C)c3)ncc(C(=O)C3=C(O)CCCC3=O)c2=O)cc1` [Compound 212] was run?
**A.** 50

**Q.** What about the “Plant response rating, Barnyardgrass” value [1, 11] of the same compound?
**A.** 0

**Q.** What about the “Plant response rating, Barnyardgrass” value [1, 16] of the same compound?
**A.** 0

**Q.** What about the “Barnyardgrass plant response rating” value [1, 17] of the same compound?
**A.** 0

**Q.** And the “Plant response rating, Flood, Ducksalad” value [2]?
**A.** 95

**Q.** What about the “Plant response rating, Ducksalad” value [2, 11] of the same compound?
**A.** 85

**Q.** What about the “Plant response rating, Ducksalad” value [2, 16] of the same compound?
**A.** 90

**Q.** What about the “Ducksalad plant response rating” value [2, 17] of the same compound?
**A.** 85

**Q.** And the “Plant response rating, Flood, Rice” value (rice (Oryza sativa))?
**A.** 10

**Q.** What about the “Plant response rating, Rice” value (rice (Oryza sativa); [11]) of the same compound?
**A.** 0

**Q.** What about the “Plant response rating, Rice” value (rice (Oryza sativa); [16]) of the same compound?
**A.** 0

**Q.** And the “Rice plant response rating” value (rice (Oryza sativa); [17])?
**A.** 0

**Q.** What about the “Plant response rating, Flood, Sedge, Umbrella” value [3] of the same compound?
**A.** 95

**Q.** What about the “Plant response rating, Sedge, Umbrella” value [3, 11] of the same compound?
**A.** 85

**Q.** What about the “Plant response rating, Sedge, Umbrella” value [3, 16] of the same compound?
**A.** 90

**Q.** What about the “Sedge, Umbrella plant response rating” value [3, 17] of the same compound?
**A.** 80

**Q.** What about the “Plant response rating, Crabgrass, Large” value [4, 12] of the same compound?
**A.** 10

**Q.** What about the “Crabgrass, Large plant response rating” value [4, 18] of the same compound?
**A.** 30

**Q.** What about the “Plant response rating, Crabgrass, Large” value [4, 14] of the same compound?
**A.** 0

**Q.** And the “Plant response rating, Crabgrass, Large” value [4, 19]?
**A.** 40

**Q.** What about the “Plant response rating, Barnyardgrass” value [5, 12] of the same compound?
**A.** 50

**Q.** And the “Barnyardgrass plant response rating” value [5, 18]?
**A.** 100

**Q.** And the “Plant response rating, Barnyardgrass” value [5, 14]?
**A.** 10

**Q.** What about the “Plant response rating, Barnyardgrass” value [5, 19] of the same compound?
**A.** 90

**Q.** And the “Plant response rating, Morningglory” value [6, 12]?
**A.** 50

**Q.** What about the “Morningglory plant response rating” value [6, 18] of the same compound?
**A.** 100

**Q.** And the “Plant response rating, Morningglory” value [6, 14]?
**A.** 0

**Q.** And the “Plant response rating, Morningglory” value [6, 19]?
**A.** 80

**Q.** And the “Plant response rating, Corn” value (corn (Zea mays); [12])?
**A.** 0

**Q.** And the “Corn plant response rating” value (corn (Zea mays); [18])?
**A.** 0

**Q.** What about the “Plant response rating, Corn” value (corn (Zea mays); [14]) of the same compound?
**A.** 0

**Q.** What about the “Plant response rating, Corn” value (corn (Zea mays); [19]) of the same compound?
**A.** 0

**Q.** What about the “Plant response rating, Velvetleaf” value [7, 12] of the same compound?
**A.** 70

**Q.** And the “Velvetleaf plant response rating” value [7, 18]?
**A.** 70

**Q.** What about the “Plant response rating, Velvetleaf” value [7, 14] of the same compound?
**A.** 50

**Q.** And the “Plant response rating, Velvetleaf” value [7, 19]?
**A.** 70

**Q.** What about the “Plant response rating, Pigweed” value [8, 12] of the same compound?
**A.** 100

**Q.** What about the “Pigweed plant response rating” value [8, 18] of the same compound?
**A.** 100

**Q.** And the “Plant response rating, Pigweed” value [8, 14]?
**A.** 60

**Q.** What about the “Plant response rating, Pigweed” value [8, 19] of the same compound?
**A.** 90

**Q.** And the “Plant response rating, Foxtail, Giant” value [9, 12]?
**A.** 0

**Q.** And the “Foxtail, Giant plant response rating” value [9, 18]?
**A.** 40

**Q.** What about the “Plant response rating, Foxtail, Giant” value [9, 14] of the same compound?
**A.** 10

**Q.** What about the “Plant response rating, Foxtail, Giant” value [9, 19] of the same compound?
**A.** 50

**Q.** And the “Plant response rating, Wheat” value [10, 12]?
**A.** 0

**Q.** What about the “Wheat plant response rating” value [10, 18] of the same compound?
**A.** 0

**Q.** What about the “Plant response rating, Wheat” value [10, 14] of the same compound?
**A.** 0

**Q.** And the “Plant response rating, Wheat” value [10, 19]?
**A.** 0
